One data set relates to GST-MmMEC-17. Kind of data set: In vitro tubulin acetyltransferase assay: effect of added agents on MEC-17 activity. The class given is biochemical, murine. The note with it: purified MEC17-KO tubulin or axonemes, acetyl-CoA. An excerpt: To disrupt the MEC-17 gene in Tetrahymena, we used homologous DNA recombination with a fragment carrying the neo4 marker that replaced the coding region. MEC-17 was overexpressed in Tetrahymena using the MTT1 cadmium-dependent promoter. In C. elegans, MEC-12-K40, MEC-12-Q40, and MEC-12-R40 transgenes were introduced into a single site on chromosome II in the EG4322 strain. Animals homozygous for a MEC-12 transgene and homozygous for the mec-12(e1607) allele were obtained by standard crosses. All touch sensation assays in C. elegans were done using blind scoring. To deplete human MEC-17 (C6Orf134) mRNA in Hela cells, we introduced MEC-17-specific siRNAs (ON-TARGETplus pool, Dharmacon) using Oligofectamine (Invitrogen). To knockdown mec17 expression in zebrafish, MOs designed to target the MEC-17 mRNA (Open Biosystems) were injected into early embryos. ATG-MEC17 MO targets the translation initiation site of mec17 mRNA. SP-MEC17 MO targets the exon3/intron3-4 splice junction, and is expected to result in an aberrant splicing isoform of exon2 to exon 4, producing a frameshift mutation and associated protein truncation. As a negative control, we injected MO with a random sequence (oligo-25N, Gene Tools) or a 5 bp mismatch to the ATG-MEC17 MO. Live embryos were scored for phenotypes at 48 hpf. […] The reaction was detected by western blotting using anti-acetyl-K antibodies. […]

For data set [1], the system named is MEC-17-KO Tetrahymena cells. Kind of data set: Response of Tetrahymena strains to microtubule drugs (growth, axonemes). The conditions noted are these: MEC-17-KO vs wild type. The class given is cell-based. Here is the method:
Cells were suspended at 10^5 cell/ml in SPP medium and incubated with the drug for 22 hr at 30° C. and the cell density was determined.

For the next data set, the target named is T1, HDAC6 (Homo sapiens, UniProt Q9UBN7).
T1 sequence (Q9UBN7 1-1215): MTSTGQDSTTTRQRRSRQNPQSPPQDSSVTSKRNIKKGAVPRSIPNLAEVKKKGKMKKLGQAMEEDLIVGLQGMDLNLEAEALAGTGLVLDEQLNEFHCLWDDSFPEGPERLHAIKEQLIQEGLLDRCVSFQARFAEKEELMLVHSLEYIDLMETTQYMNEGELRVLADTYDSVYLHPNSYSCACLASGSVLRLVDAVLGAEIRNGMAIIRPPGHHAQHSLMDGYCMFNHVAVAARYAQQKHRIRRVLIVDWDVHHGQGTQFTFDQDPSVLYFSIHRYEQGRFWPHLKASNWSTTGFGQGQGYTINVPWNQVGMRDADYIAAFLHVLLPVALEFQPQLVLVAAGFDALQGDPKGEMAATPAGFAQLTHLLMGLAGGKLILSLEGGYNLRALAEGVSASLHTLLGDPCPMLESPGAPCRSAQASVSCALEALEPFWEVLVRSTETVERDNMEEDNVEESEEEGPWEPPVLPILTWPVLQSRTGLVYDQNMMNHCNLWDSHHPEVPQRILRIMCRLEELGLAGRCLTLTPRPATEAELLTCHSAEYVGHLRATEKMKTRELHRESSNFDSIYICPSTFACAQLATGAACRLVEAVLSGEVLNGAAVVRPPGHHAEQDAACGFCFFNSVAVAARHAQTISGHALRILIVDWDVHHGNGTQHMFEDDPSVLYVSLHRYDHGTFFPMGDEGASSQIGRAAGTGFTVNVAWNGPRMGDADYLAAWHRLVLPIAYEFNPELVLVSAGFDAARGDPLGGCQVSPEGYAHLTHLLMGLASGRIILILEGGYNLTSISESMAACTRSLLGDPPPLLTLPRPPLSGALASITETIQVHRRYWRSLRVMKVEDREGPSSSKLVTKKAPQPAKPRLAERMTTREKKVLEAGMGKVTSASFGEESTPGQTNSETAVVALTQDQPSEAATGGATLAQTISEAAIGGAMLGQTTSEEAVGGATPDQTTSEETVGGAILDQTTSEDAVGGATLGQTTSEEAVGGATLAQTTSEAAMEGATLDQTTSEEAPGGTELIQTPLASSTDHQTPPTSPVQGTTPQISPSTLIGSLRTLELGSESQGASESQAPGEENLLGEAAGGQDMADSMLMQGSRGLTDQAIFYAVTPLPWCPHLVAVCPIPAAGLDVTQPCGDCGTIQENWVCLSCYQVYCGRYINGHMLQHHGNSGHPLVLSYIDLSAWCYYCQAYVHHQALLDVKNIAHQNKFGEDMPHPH
The conditions noted are these: cited from earlier work.

The subject of the next data set is zebrafish embryos. Briefly: Phenotypes of live zebrafish embryos at 48 hpf after morpholino injection. The class given is in vivo. The text has this: To disrupt the MEC-17 gene in Tetrahymena, we used homologous DNA recombination with a fragment carrying the neo4 marker that replaced the coding region. MEC-17 was overexpressed in Tetrahymena using the MTT1 cadmium-dependent promoter. In C. elegans, MEC-12-K40, MEC-12-Q40, and MEC-12-R40 transgenes were introduced into a single site on chromosome II in the EG4322 strain. Animals homozygous for a MEC-12 transgene and homozygous for the mec-12(e1607) allele were obtained by standard crosses. All touch sensation assays in C. elegans were done using blind scoring. To deplete human MEC-17 (C6Orf134) mRNA in Hela cells, we introduced MEC-17-specific siRNAs (ON-TARGETplus pool, Dharmacon) using Oligofectamine (Invitrogen). To knockdown mec17 expression in zebrafish, MOs designed to target the MEC-17 mRNA (Open Biosystems) were injected into early embryos. ATG-MEC17 MO targets the translation initiation site of mec17 mRNA. SP-MEC17 MO targets the exon3/intron3-4 splice junction, and is expected to result in an aberrant splicing isoform of exon2 to exon 4, producing a frameshift mutation and associated protein truncation. As a negative control, we injected MO with a random sequence (oligo-25N, Gene Tools) or a 5 bp mismatch to the ATG-MEC17 MO. Live embryos were scored for phenotypes at 48 hpf. To produce a recombinant MEC-17 protein, the cDNA sequence of the murine MEC-17 (BF135007, Open Biosystems) was subcloned into pGEX-3× plasmid (GE Healthcare), expressed in BL21 E. coli cells as a GST fusion and purified using GST-Bind kit (Novagen). The in vitro acetylation assays were performed in 50 mM Tris-HCl pH 8.0, […], 0.1 mM EDTA, with purified Tetrahymena MEC-17-KO axonemes or tubulin (purified using DEAE chromatography), recombinant GST-MmMEC-17 enzyme and 10 μM acetyl-CoA. The reaction was detected by western blotting using anti-acetyl-K antibodies.
ATG-MEC17 targets the translation initiation site of MEC-17 mRNA. SP-MEC17 MO targets the exon3/intron3-4 splice junction, and is expected to result in an aberrantly spliced isoform in which exon2 is joined to exon 4. The predicted transcript contains a frameshift mutation and encodes a nonsense protein. As a negative control we injected MO with a random sequence (oligo-25N, Gene Tools) or a 5 bp mismatch to the ATG-MEC17 MO (5′-CATTgAcGTCcTAAGGcAAATgCAT-3′; SEQ ID NO:9). Live embryos were scored for phenotypes at 48 hpf, or fixed processed for immunofluorescence as described (Wloga et al., 2009 Dev Cell 16:867-876). The antibodies were used in the following concentrations: 6-11 B-1 mAb (1:1000), Znp-1 anti-synaptotagmin 1 mAb (1:100). After incubation with secondary antibodies (Zymed) overnight at 4° C. (1:500) embryos were mounted in 100 mg/ml of DABCO (Sigma-Aldrich) in PBS and viewed in a Leica TCS SP confocal microscope. Live zebrafish morphants shown in videos S1-S3 were recorded using on the Zeiss Stemi SV11 Apo microscope and a SPOT FLEX camera (Diagnostic Instruments Inc.) at 12 frames per second.

The next data set deals with mec17 mRNA. Kind of data set: RT-PCR of mec17 mRNA in morpholino-injected embryos. The class given is in vivo, zebrafish. The note with it: RT-PCR exon 1 to exon 5. Here is the method:
Total cDNA was made using randomly-primed mRNA isolated from either control (WT) or embryos injected with 5 bp mismatch MO (MIS), ATG-MO (ATG), or splice-site MO (SP), and amplified using either primers corresponding to the coding sequence of the β-actin gene (top panel) or primers that correspond to the sequence of mec17 between exon 1 and exon 5 (bottom panel). As controls, amplifications were performed on samples that lacked reverse transcriptase (−RT). Note that the β-actin gene primers gave a robust product of the expected size (100 bp) for all +RT samples (top).
For RT-PCR, mRNA was isolated from 70 embryos 24 hpf using TRIzol reagent (Invitrogen, Carslbad, Calif.), and total cDNA was synthesized using iScript cDNA synthesis kit (Bio-Rad Laboratories, Hercules, Calif.). The sequences of primers used to amplify the mec17 cDNA were: MEC17EX1F 5′-[…]-3′ (SEQ ID NO:10) and MEC17EX5R2 5′-[…]-3′ (SEQ ID NO:11). The forward primer binds to exon 1 and the reverse primer binds to exon 5 (the splice blocking morpholino binds to the junction between exon 3 and the intron 3-4). For the control amplification of β-actin cDNA, we used the following primers: 5′-[…]-3′ (SEQ ID NO:12) and 5′-[…]-3′ (SEQ ID NO:13).

In the case of `Nc1nc2c(ncn2[C@@H]2O[C@H](COP(=O)(O)OP(=O)(O)OP(=O)(O)O)[C@@H](O)[C@H]2O)c(=O)[nH]1` [GTP], in the data set on GST-MmMEC-17, the “effect on MEC-17 acetylation activity” value was “stimulated”.
As for `CC(=O)O[C@H]1C(=O)[C@@]2(C)[C@H]([C@H](OC(=O)c3ccccc3)[C@]3(O)C[C@H](OC(=O)[C@H](O)[C@@H](NC(=O)c4ccccc4)c4ccccc4)C(C)=C1C3(C)C)[C@]1(OC(C)=O)CO[C@@H]1C[C@@H]2O` [Paclitaxel, paclitaxel, reference compound], the “growth of MEC-17-KO cells in medium with drug, compared with wild type” value in data set [1] is on record as “grew faster than wild-type cells”. Further, the “effect on MEC-17 acetylation activity” value in the data set with GST-MmMEC-17 is “stimulated”.
For `O=C(CCCCCCC(=O)Nc1ccc([C@H]2O[C@@H](CSc3nc(-c4ccccc4)c(-c4ccccc4)o3)C[C@@H](c3ccc(CO)cc3)O2)cc1)NO` [tubacin], at HDAC6, the “inhibition of HDAC6” value was “a specific inhibitor”.
In the case of “ATG MIS MO: negative control MO, 5 bp mismatch to the ATG-MEC17 MO, 5′-CATTgAcGTCcTAAGGcAAATgCAT-3′ (SEQ ID NO:9) (CATTGACGTCCTAAGGCAAATGCAT; all phosphorodiamidate morpholino (PMO)) [reference compound]”, in the data set on zebrafish embryos (Table 2, 1 ng MO, 48 hpf), the “Edema of the heart (frequency of phenotype)” value (“Edema of the heart” below) stood at 3.8%, the “Hydrocephaly (frequency of phenotype)” value was determined as 0%, the “Lethality (frequency of phenotype)” value is given as 2.5% and the “Mobility: reduced mobility” value was found to be 2.5% reduced mobility. Also, in the data set with zebrafish embryos (Table 2, 1 ng MO, 48 hpf), the “Short body axis (frequency of phenotype)” value came out at 5.1%, the “Small head/eyes: small eyes” value was 1.2% small eyes and the “Small head/eyes: small heads” value was found to be 6.4% small heads. Moreover, the “gross embryo phenotype / developmental defects” value in the data set with zebrafish embryos (injected embryos) was “appeared normal”.
With “MEC-17 ATG MO: morpholino 5′-CATTCAGGTCGTAAGGGAAATCCAT-3′ (SEQ ID NO:7); targets the translation initiation site of MEC-17 mRNA (all phosphorodiamidate morpholino (PMO))”, in the data set on zebrafish embryos (Table 1, 1 ng MO, 48 hpf), the “Edema of the heart” value came out at 15.4%, the “Hydrocephaly (frequency of phenotype)” value worked out at 15%, the “Lethality (frequency of phenotype)” value stood at 7% and the “Paralyzed (frequency of phenotype)” value turned out to be 15.4%. Besides, in the data set on zebrafish embryos (Table 1, 1 ng MO, 48 hpf), the “Reduced mobility (frequency of phenotype)” value was determined as 41.6%, the “Short body axis (frequency of phenotype)” value turned out to be 35.7% and the “Small head/eyes (frequency of phenotype)” value was 28.5%. For the same compound, in the data set on zebrafish embryos (Table 2, 1 ng MO, 48 hpf), the “Edema of the heart” value was 7.9%, the “Hydrocephaly (frequency of phenotype)” value worked out at 13.8%, the “Lethality (frequency of phenotype)” value came out at 3.7% and the “Mobility: paralyzed” value is 10.1% paralyzed. Moreover, in the data set on zebrafish embryos (Table 2, 1 ng MO, 48 hpf), the “Mobility: reduced mobility” value is listed as 17.5% reduced mobility, the “Short body axis (frequency of phenotype)” value is on record as 27.1%, the “Small head/eyes: small eyes” value came out at 74.4% small eyes and the “Small head/eyes: small heads” value is reported as 79.2% small heads.
As to “MEC-17 SP MP: morpholino 5′-AGAGAAAGCTATTTTACCCGTTCTG-3′ (SEQ ID NO:8); targets the exon3/intron3-4 splice junction of mec17 (all phosphorodiamidate morpholino (PMO))”, in the data set with zebrafish embryos (Table 1, 1 ng MO, 48 hpf), the “Edema of the heart” value is on record as 13.2%, the “Hydrocephaly (frequency of phenotype)” value is 33%, the “Lethality (frequency of phenotype)” value was 28% and the “Paralyzed (frequency of phenotype)” value came out at 15%. In addition, in the data set on zebrafish embryos (Table 1, 1 ng MO, 48 hpf), the “Reduced mobility (frequency of phenotype)” value is 23.5%, the “Short body axis (frequency of phenotype)” value was found to be 41.5% and the “Small head/eyes (frequency of phenotype)” value is 47.1%. The “levels of mec17 mRNA” value in the data set with mec17 mRNA is on record as “severe reduction”.

The values above are taken from patent US20140248635A1, “ALPHA-TUBULIN […]” (University of Georgia Research Foundation, Inc., priority 2010, published 2014).
